The values that follow are results of earlier work, collected in patent US7101842B2, “Targeted delivery of drugs for the treatment of parasitic infections” (priority 2001, dated 2006).

This data set has as its system trypanosomiasis. The following applies: patients treated for sleeping sickness.

Consider `Nc1nc(N)nc(Nc2ccc([As]3SCC(CO)S3)cc2)n1` (centres unmarked) [melarsopral], for which the “fatal encepholopathy in recipients” value is reported as 5–7% and the relapse rates is recorded as at most 10%.
